Several values for one entry are separate records, joined by “and”; a condition that tells them apart may be missing. Equal values may be shown once. Read-outs that look alike come from different tables or passages of the source.

The source of these data is patent US20220332764A1, “T CELL EPITOPES OF HCMV AND USES OF THEREOF” (EBERHARD KARLS UNIVERSITÄT TÜBINGEN, priority 2019, published 2022).

Assay [1] has as its system CD8+ T cells of HLA-matched healthy donors. The following applies: for Tetramer-staining: after 12 day amplification.
Assay [2] concerns PBMCs of healthy HCMV-seropositive donors. The experiment in a line: IFNγ ELISpot after 12 day stimulation (memory T-cell response). The assay is classed as cell-based, human. The settings on record: for % Positive donors (after 12 days of stimulation): IFNγ ELISpot, HLA-matched seropositive donors; for ELISpot response rate (12 d stim.): 12-day amplification with IL-2 in vitro; for Positive donors as tested: positive / tested HLA-matched seropositive donors, positive: >10 spots/well and at least 3-fold negative control; for Binding to more than one HLA-I allotype: stimulated T cells of different donors harboring either of two well predicted alleles. From the text: (§1) PHA was used as positive control.

The test system of assay [3] is CD8+ / CD4+ T cells of donor PBMCs. As to the kind of experiment: Intracellular cytokine staining (ICS; IFNγ, TNFα, CD107a). Format: cell-based, human. The following applies: for Intracellular staining: responding T-cell subset; for Intracellular cytokine staining: responding T-cell subset after peptide stimulation. From the text:
PHA was used as positive control. […] (Cytofix/Cytoperm, BD Biosciences).

In assay [4] the test system is PBMCs of healthy HCMV-seropositive donors. As to the kind of experiment: ex vivo IFNγ ELISpot without prestimulation. The settings on record: for % Positive donors (ex vivo): IFNγ ELISpot ex vivo, donors previously tested positive; for ELISpot response rate (ex vivo): donors positively tested in ELISpots with 12d stimulation. Format: cell-based, human.
Excerpt: as §1

As to “GLYTQPRWK (listed as Human cytomegalovirus) [SEQ ID NO: 67]”, the Tetramer staining entry in assay [1] (Tested HLA A*03:01) is listed as “positive”. For the same sequence, the Tetramer-staining entry in assay [1] is “Positive”. In assay [2], the “% Positive donors (after 12 days of stimulation)” value is listed as 76.2% and the “Positive donors as tested” value is given as 16/21. The “ELISpot response rate (12 d stim.)” value in assay [2] (Tested HLA A*03:01) stood at 76.2. Further, the Intracellular staining result in assay [3] (Tested HLA A*03:01) is on record as “CD8”. Besides, in assay [3], the Intracellular cytokine staining result is given as “CD8”. The “% Positive donors (ex vivo)” value in assay [4] is recorded as 50.0%. For the same sequence, in assay [4] (Tested HLA A*03:01), the “ELISpot response rate (ex vivo)” value was determined as 50.0.

For the sequence “GVLDAVWRV (listed as Human cytomegalovirus) [SEQ ID NO: 1]”, the Tetramer staining entry in assay [1] (Tested HLA A*02:01) is recorded as “positive”. Besides, the Tetramer-staining entry in assay [1] is “Positive”. For the same sequence, in assay [2], the “% Positive donors (after 12 days of stimulation)” value came out at 72.2% and the “Positive donors as tested” value is given as 13/18. The “ELISpot response rate (12 d stim.)” value in assay [2] (Tested HLA A*02:01) is on record as 72.2. For the same sequence, in assay [3] (Tested HLA A*02:01), the Intracellular staining result is listed as “CD8”. Besides, the Intracellular cytokine staining entry in assay [3] is recorded as “CD8”. Also, the “% Positive donors (ex vivo)” value in assay [4] came to 50.0%. In assay [4] (Tested HLA A*02:01), the “ELISpot response rate (ex vivo)” value came out at 50.0.

Regarding “HETGVYQMW (listed as Human cytomegalovirus) [SEQ ID NO: 41]”, in assay [1] (Tested HLA B*44:02), the Tetramer staining entry is “positive”. Also, the Tetramer-staining result in assay [1] is recorded as “Positive”. Moreover, in assay [2], the “% Positive donors (after 12 days of stimulation)” value turned out to be 65.4% and the “Positive donors as tested” value is reported as 17/26. The “ELISpot response rate (12 d stim.)” value in assay [2] (Tested HLA B*44:02) is recorded as 65.4. In assay [3] (Tested HLA B*44:02), the Intracellular staining result was “CD8”. In addition, the Intracellular cytokine staining entry in assay [3] was “CD8”. Moreover, the “% Positive donors (ex vivo)” value in assay [4] is given as 62.5%. Moreover, the “ELISpot response rate (ex vivo)” value in assay [4] (Tested HLA B*44:02) came out at 62.5.

Turning to “ITEIALDRY (listed as Human cytomegalovirus) [SEQ ID NO: 54]”, the Tetramer staining result in assay [1] (Tested HLA A*01:01) is given as “positive”. In addition, in assay [1], the Tetramer-staining entry was “Positive”. Moreover, in assay [2], the “% Positive donors (after 12 days of stimulation)” value amounted to 58.3% and the “Positive donors as tested” value is reported as 14/24. Besides, the “ELISpot response rate (12 d stim.)” value in assay [2] (Tested HLA A*01:01) stood at 58.3. Further, in assay [3] (Tested HLA A*01:01), the Intracellular staining result is “CD8”. For the same sequence, the Intracellular cytokine staining result in assay [3] is reported as “CD8”. In addition, the “% Positive donors (ex vivo)” value in assay [4] stood at 14.3%. In addition, the “ELISpot response rate (ex vivo)” value in assay [4] (Tested HLA A*01:01) worked out at 14.3.

“LPHERHREL (listed as Human cytomegalovirus) [SEQ ID NO: 100]”: in assay [1] (Tested HLA B*08:01), the Tetramer staining result is “positive”. The Tetramer-staining result in assay [1] was “positive”. The “ELISpot response rate (12 d stim.)” value in assay [2] (Tested HLA B*08:01) turned out to be 90.9. In assay [2], the “Positive donors as tested” value was 20/22 and 3/12; the “Binding to more than one HLA-I allotype” value is reported as “potentially able to bind to more than one HLA-I allotype”. In assay [3] (Tested HLA B*08:01), the Intracellular staining entry is “CD8”. Also, the Intracellular cytokine staining result in assay [3] was “CD8”. Also, the “% Positive donors (ex vivo)” value in assay [4] was 85.7%. In addition, the “ELISpot response rate (ex vivo)” value in assay [4] (Tested HLA B*08:01) turned out to be 85.7.

Consider “LPLKMLNI (listed as Human cytomegalovirus) [SEQ ID NO: 87]”, for which the Tetramer staining entry in assay [1] (Tested HLA B*51:01) is given as “positive”. The Tetramer-staining entry in assay [1] is on record as “Positive”. Besides, in assay [2], the “% Positive donors (after 12 days of stimulation)” value worked out at 80.0% and the “Positive donors as tested” value is given as 12/15. The “ELISpot response rate (12 d stim.)” value in assay [2] (Tested HLA B*51:01) came to 80.0. Besides, the Intracellular staining result in assay [3] (Tested HLA B*51:01) was “CD8”. For the same sequence, the Intracellular cytokine staining entry in assay [3] is given as “CD8”. Besides, the “% Positive donors (ex vivo)” value in assay [4] worked out at 87.5%. In assay [4] (Tested HLA B*51:01), the “ELISpot response rate (ex vivo)” value came to 87.5.

In the case of “LPYPRGYTL (listed as Human cytomegalovirus) [SEQ ID NO: 99]”, in assay [1], the “HLA restriction demonstrated by tetramer stainings” value was “B*08 and B*51 restriction”. In addition, the Tetramer staining entry in assay [1] (Tested HLA B*08:01) and in assay [1] (Tested HLA B*51:01) was “positive” in each case. In assay [1], the Tetramer-staining result was “positive”. Also, the “Response in mismatch ELISpots” value in assay [2] (B*08-/B*51− PBMC samples) is on record as “showed responses”. In addition, the “% Positive donors (after 12 days of stimulation)” value in assay [2] was 68.8% and 62.5%. The “ELISpot response rate (12 d stim.)” value worked out at 68.8 in assay [2] (Tested HLA B*08:01) and 62.5 in assay [2] (Tested HLA B*51:01). Also, the “Positive donors as tested” value in assay [2] is 11/16 and 10/16. For the same sequence, the “Binding to more than one HLA-I allotype” value in assay [2] is reported as “potentially able to bind to more than one HLA-I allotype”. The Intracellular staining entry in assay [3] (Tested HLA B*08:01) and in assay [3] (Tested HLA B*51:01) was “CD8” in each case. In assay [3], the Intracellular cytokine staining entry was “CD8”. Also, the “% Positive donors (ex vivo)” value in assay [4] was 16.7% and 33.3%. For the same sequence, the results for the “ELISpot response rate (ex vivo)” value in assay [4] (Tested HLA B*08:01) and in assay [4] (Tested HLA B*51:01) were 16.7 and 33.3, respectively.

Turning to “NLVPMVATV (listed as Human cytomegalovirus) [SEQ ID NO: 101]”, the Tetramer staining result in assay [1] (Tested HLA A*02:01) was “positive”. For the same sequence, the “ELISpot response rate (12 d stim.)” value in assay [2] (Tested HLA A*02:01) was found to be 75.0. Besides, the Intracellular staining result in assay [3] (Tested HLA A*02:01) is “CD8”. For the same sequence, in assay [4] (Tested HLA A*02:01), the “ELISpot response rate (ex vivo)” value stood at 100.0.

In the case of “NTDFRVLELY (listed as Human cytomegalovirus) [SEQ ID NO: 55]”, the Tetramer staining result in assay [1] (Tested HLA A*01:01) is listed as “positive”. In addition, in assay [1], the Tetramer-staining result is reported as “Positive”. Besides, in assay [2], the “% Positive donors (after 12 days of stimulation)” value came to 56.3% and the “Positive donors as tested” value is 9/16. Moreover, in assay [2] (Tested HLA A*01:01), the “ELISpot response rate (12 d stim.)” value was found to be 56.3. The Intracellular staining entry in assay [3] (Tested HLA A*01:01) is on record as “CD8”. Also, in assay [3], the Intracellular cytokine staining result is “CD8”. Besides, the “% Positive donors (ex vivo)” value in assay [4] is 0.0%. The “ELISpot response rate (ex vivo)” value in assay [4] (Tested HLA A*01:01) was 0.0.

Consider “RTDPATLTAY (listed as Human cytomegalovirus) [SEQ ID NO: 53]”, for which the Tetramer staining entry in assay [1] (Tested HLA A*01:01) is “positive”. Also, in assay [1], the Tetramer-staining result is on record as “Positive”. In assay [2], the “% Positive donors (after 12 days of stimulation)” value is 82.6% and the “Positive donors as tested” value is recorded as 19/23. Besides, the “ELISpot response rate (12 d stim.)” value in assay [2] (Tested HLA A*01:01) was 82.6. For the same sequence, the Intracellular staining result in assay [3] (Tested HLA A*01:01) is listed as “CD8”. For the same sequence, the Intracellular cytokine staining result in assay [3] was “CD8”. For the same sequence, the “% Positive donors (ex vivo)” value in assay [4] amounted to 66.7%. The “ELISpot response rate (ex vivo)” value in assay [4] (Tested HLA A*01:01) is on record as 66.7.

Regarding “RVKNRPIYR (listed as Human cytomegalovirus) [SEQ ID NO: 68]”, the Tetramer staining result in assay [1] (Tested HLA A*03:01) is recorded as “positive”. The Tetramer-staining result in assay [1] is listed as “Positive”. Further, in assay [2], the “% Positive donors (after 12 days of stimulation)” value is 60.9% and the “Positive donors as tested” value is reported as 14/23. For the same sequence, the “ELISpot response rate (12 d stim.)” value in assay [2] (Tested HLA A*03:01) was determined as 60.9. Further, in assay [3] (Tested HLA A*03:01), the Intracellular staining result is on record as “CD8”. For the same sequence, the Intracellular cytokine staining entry in assay [3] is “CD8”. In assay [4], the “% Positive donors (ex vivo)” value is given as 33.3%. Also, the “ELISpot response rate (ex vivo)” value in assay [4] (Tested HLA A*03:01) is on record as 33.3.

“SENGNLQVTY (listed as Human cytomegalovirus) [SEQ ID NO: 40]”: the Tetramer staining entry in assay [1] (Tested HLA B*44:02) is on record as “positive”. Moreover, in assay [1], the Tetramer-staining result is given as “Positive”. In assay [2], the “% Positive donors (after 12 days of stimulation)” value is reported as 83.9% and the “Positive donors as tested” value is on record as 26/31. For the same sequence, the “ELISpot response rate (12 d stim.)” value in assay [2] (Tested HLA B*44:02) is on record as 83.9. Further, the Intracellular staining result in assay [3] (Tested HLA B*44:02) is “CD8”. For the same sequence, in assay [3], the Intracellular cytokine staining entry was “CD8”. Also, the “% Positive donors (ex vivo)” value in assay [4] is 62.5%. Moreover, the “ELISpot response rate (ex vivo)” value in assay [4] (Tested HLA B*44:02) is 62.5.

For “SESEFIVRY (listed as Human cytomegalovirus) [SEQ ID NO: 43]”, in assay [1], the Tetramer-staining result is “Positive”. For the same sequence, in assay [2], the “% Positive donors (after 12 days of stimulation)” value was 40.0% and the “Positive donors as tested” value was 8/20. For the same sequence, the Intracellular cytokine staining result in assay [3] is “CD8”. The “% Positive donors (ex vivo)” value in assay [4] came out at 37.5%.
